Assay results from US8017786B2, “Substituted β-phenyl-α-hydroxy-propanoic acid, synthesis method and use thereof” (Northwest University, priority 2006, dated 2011).

Assays:
Assay type in all cases: in vivo, rat
[1] = test system: creatine kinase isoenzyme (CK-MB); assay: Serum CK-MB activity in rats with myocardial ischemia; conditions: for CK-MB: serum, 24 h after ligation
Protocol: (§1) At 0.5 h after the rats of these groups were administered intragastrically, the standard II lead electrocardiogram (before modeling) was recorded, and the height of ST-T segment was measured. The rats of sham operation group were then subjected to coronary artery braid without ligation, and the rats of other groups were subjected to coronary artery ligation in accordance with the following method to establish cute myocardial ischemia models. The rats were subjected to etherization, fixed at supine position, and their normal electrocardiograms (before modeling) were recorded. The skin of left thorax was incised under aseptic conditions, the 4th intercostal muscles were isolated in blunt way, the heart was extruded by light pressure to the right thorax, the left anterior descending coronary artery was ligated at a position 2˜3 mm departing from the left coronary artery origin and between the pulmonary conus and the left auricle of heart, then the heart was sent back to thorax cavity immediately and sutured the incision. Penicillin was smeared topically for the prevention of infections. After operation, the electrocardiogram of postischemia was recorded immediately (at 0 min after modeling), and the height of ST-T segment was measured.

[2] = test system: rats with acute myocardial ischemia; assay: ST-T segment of ECG in rats with myocardial ischemia
Protocol: as §1

creatine kinase (CK) = assay: Serum CK activity in rats with myocardial ischemia; conditions: for CK: serum, 24 h after ligation
Protocol: as §1

[3] = test system: lactate dehydrogenase (LDH); assay: Serum LDH activity in rats with myocardial ischemia; conditions: for LDH: serum, 24 h after ligation
Protocol: as §1

[4] = test system: rats with middle cerebral artery occlusion; assay: Cerebral microcirculatory blood flow in rats with middle cerebral artery occlusion
Protocol: 60 SD rats with a body weight of 220±20 g were randomly divided into normal control group, model control group, salvianic acid injection group (ip. 1 mL/kg), and group of bornyl β-(3,4-dihydroxylphenyl)-α-hydroxylpropionate ester at a small, middle and large dose respectively (ip. 5, 15, and 35 mg/kg). The rats of normal group and model group were administered with equal-volume of physiologic saline by ip. The rats were anesthetized by intraperitoneal injection of 1% pentobarbital sodium at an amount of 40 mg/kg, then placed at supine position, head fixed, and cut skin along cervical middle line. Trachea cannula, was inserted into the rats and they were allowed to spontaneous respire. Right common jugular vein and common carotid artery were isolated and a suture was introduced for later use. Animals were fixed on a rat stereotaxic apparatus, a cranial window with a size of 6×8 mm was opened at the right temple with a dental drill, after hemostasis, cerebral dura mater was cut open with scissors to expose cerebral pia mater. The window was covered and sealed with glass and dental cement, and the laser probe of a laser-doppler microcirculatory blood flow meter was fixed on the cranial window. Then the animals were fixed at lateral position, the right common carotid artery was lifted, ligated at the proximal part and carefully cut with scissors, a nylon suture having a diameter of about 0.3 mm was introduced into the artery. The distance between the artery cut and the paropia of the rats was marked before the suture was introduced. […] When the suture arrived at middle cerebral artery, an abrupt decrease of the microcirculatory blood flow would be observed. After the observation of a decrease in the microcirculatory blood flow, the suture was further penetrated by about 1 mm, and the distal end of the cut and the suture in the artery were ligated securely. Spare suture was cut-off. After the end of the test, it was checked whether the nylon suture blocked the initiation site of the middle cerebral artery, and the data of any animal whose artery was not blocked were cancelled. The animals of the control group were not treated. After the cranial window was prepared, the probe of J I2200 type laser-doppler microcirculatory blood flow meter was fixed at the cranial window, and the probe was maintained without displacement and rotation during the whole test. The microcirculatory blood flows before ligation and 5, 15, 30, 45 and 60 min after ligation were recorded, and the data of the animals in the drug-treatment groups were recorded at the same time points. The mean microcirculatory blood flow observed within 1 min at each time point was designated as the microcirculatory blood flow of the respective time point.

[5] = 10 mg/kg intragastric, 0 min after modeling
[6] = 10 mg/kg intragastric, 24 h after modeling
[7] = 20 mg/kg intragastric, 0 min after modeling
[8] = 20 mg/kg intragastric, 24 h after modeling
[9] = 40 mg/kg intragastric, 0 min after modeling
[10] = 40 mg/kg intragastric, 24 h after modeling

## CC1(C)C2CCC1(C)C(OC(=O)C(O)Cc1ccc(O)c(O)c1)C2 (stereo not drawn) [bornyl salvianate ester, bornyl β-(3,4-dihydroxylphenyl)-α-hydroxylpropionate ester]
[1]; 10 mg/kg intragastric
  CK-MB: 1267.0 ± 274.4 U/L
[1]; 20 mg/kg intragastric
  CK-MB: 1074.1 ± 116.8 U/L
[1]; 40 mg/kg intragastric
  CK-MB: 906.3 ± 99.9 U/L
[1]; all dose groups, 24 h later
  activity of creatine kinase isoenzyme (CK-MB) (in words): decreased
[2]; [5]
  Elevation of ST-T segment: 0.24 ± 0.24 mV
  Elevation of ST-T segment, Change rate: 95.00 ± 78.34%
[2]; [6]
  Elevation of ST-T segment: 0.17 ± 0.09 mV
  Elevation of ST-T segment, Change rate: 49.00 ± 36.27%
[2]; 10 mg/kg intragastric, before modeling
  Elevation of ST-T segment: 0.21 ± 0.06 mV
[2]; [7]
  Elevation of ST-T segment: 0.13 ± 0.16 mV
  Elevation of ST-T segment, Change rate: 91.61 ± 116.85%
[2]; [8]
  Elevation of ST-T segment: 0.11 ± 0.10 mV
  Elevation of ST-T segment, Change rate: 60.77 ± 39.69%
[2]; 20 mg/kg intragastric, before modeling
  Elevation of ST-T segment: 0.17 ± 0.07 mV
[2]; [9]
  Elevation of ST-T segment: 0.36 ± 0.17 mV
  Elevation of ST-T segment, Change rate: 103.87 ± 148.26%
[2]; [10]
  Elevation of ST-T segment: 0.18 ± 0.07 mV
  Elevation of ST-T segment, Change rate: 29.01 ± 18.99 %
[2]; 40 mg/kg intragastric, before modeling
  Elevation of ST-T segment: 0.21 ± 0.06 mV
Creatine kinase (CK); 10 mg/kg intragastric
  CK: 1214.2 ± 160.2 U/L
Creatine kinase (CK); 20 mg/kg intragastric
  CK: 894.5 ± 176.3 U/L
Creatine kinase (CK); 40 mg/kg intragastric
  CK: 778.0 ± 177.1 U/L
Creatine kinase (CK); all dose groups, 24 h later
  activity of creatine kinase (CK) (in words): decreased
[3]; 10 mg/kg intragastric
  LDH: 1663.7 ± 374.43 U/L
[3]; 20 mg/kg intragastric
  LDH: 2022.7 ± 202.63 U/L
[3]; 40 mg/kg intragastric
  LDH: 1712.5 ± 209.1 U/L
[3]; all dose groups, 24 h later
  activity of lactate dehydrogenase (LDH) (in words): decreased
[4]; 5 mg/kg ip, 5 min after ligation
  Microcirculatory blood flow: 11.4 ± 5.4 mL
[4]; 5 mg/kg ip, 15 min after ligation
  Microcirculatory blood flow: 12.4 ± 4.6 mL
[4]; 5 mg/kg ip, 30 min after ligation
  Microcirculatory blood flow: 12.9 ± 5.1 mL
[4]; 5 mg/kg ip, 45 min after ligation
  Microcirculatory blood flow: 16.1 ± 4.1 mL
[4]; 5 mg/kg ip, 60 min after ligation
  Microcirculatory blood flow: 16.0 ± 6.9 mL
[4]; 15 mg/kg ip, 5 min after ligation
  Microcirculatory blood flow: 9.4 ± 3.7 mL
[4]; 15 mg/kg ip, 15 min after ligation
  Microcirculatory blood flow: 12.8 ± 5.6 mL
[4]; 15 mg/kg ip, 30 min after ligation
  Microcirculatory blood flow: 20.7 ± 3.2 mL
[4]; 15 mg/kg ip, 45 min after ligation
  Microcirculatory blood flow: 25.0 ± 5.2 mL
[4]; 15 mg/kg ip, 60 min after ligation
  Microcirculatory blood flow: 24.4 ± 4.8 mL
[4]; 15 mg/kg, 30 minutes after the administration
  cerebral microcirculatory blood flow (in words): increased slightly
[4]; 35 mg/kg ip, 5 min after ligation
  Microcirculatory blood flow: 10.8 ± 2.7 mL
[4]; 35 mg/kg ip, 15 min after ligation
  Microcirculatory blood flow: 19.4 ± 5.1 mL
[4]; 35 mg/kg ip, 30 min after ligation
  Microcirculatory blood flow: 32.7 ± 6.2 mL
[4]; 35 mg/kg ip, 45 min after ligation
  Microcirculatory blood flow: 35.4 ± 8.2 mL
[4]; 35 mg/kg ip, 60 min after ligation
  Microcirculatory blood flow: 35.2 ± 5.8 mL
[4]; 35 mg/kg, 15 minutes after the administration
  cerebral microcirculatory blood flow (in words): increased slightly
